Results: patent US9073880B2, “2-(2-phenylethenyl) 1,3-benzodiazepine derivatives useful for the treatment of cancer” (Yissum Research Development Company of the Hebrew …, priority 2010, dated 2015)

Key:
Format in all cases: cell-based
[1] = test system: human breast cancer MDA-MB-468 cells; assay: Cell proliferation, MDA-MB-468 (Example 4); conditions: MDA-MB-468, breast cancer, compound in 2-hydroxypropyl-β-cyclodextrin
Method: (§1) Human ovary cancer A2780 cells lines were seeded at a density of 5000 cells/well, human melanoma A375 cells were plated at a density of 2,500 cells/well, human colon carcinoma HCT15 cells were plated at a density of 3,000 cells/well, human prostate carcinoma PC3 cells were plated at a density of 1,500 cells/well, human breast carcinoma MCF7 cells were plated at a density of 5,000 cells/well, human breast carcinoma MDA MB 468 cells were plated at a density of 6,000 cells/well, human myeloma U266, RPMI8226 and CAG cells were plated at a density of 10,000 cells/well. All cells were plated in 96-well plates in 90 μl growth medium containing 10% FCS, 100 units/ml penicillin and 100 μg/ml streptomycin. Compound 3 was added a day later in […] of 1% DMSO in DDW to obtain final concentrations of 0, 0.1, 0.3, 1, 3, and 10 μM. The final concentration of DMSO (0.1% DMSO) was kept constant in all samples. Following exposure of the cells to compound 3 for 72 hours at 37° C., adhered cells were fixed in 0.5% gluteraldehyde in medium for 10 min, washed three times with DDW, once with 0.1M sodium borate buffer pH 8.5 and stained with 1% methylene blue dissolved in 0.1M borate buffer solution for 60 min. Excess dye was washed out and cell-bound dye was eluted with 200 μl/well of 0.1M HCl. The optical density values were read at 630 nm in ELISA plate reader. Non-adhered cells were exposed to WST-1 reagent for 5 hours following 72 hours treatment with the inhibitors, and optical density values were read at 630 nm in ELISA plate reader. The data was analyzed in Microsoft Excel, using the vehicle control as 100% proliferation. The assays were performed in triplicates. The values of IC50 were derived from the dose-dependent growth curves obtained.
(§2) Cell proliferation assay was performed as described in Example 2. […]

[2] = test system: human multiple myeloma MM1S cells; assay: Cell proliferation, MM1S (Example 4); conditions: MM1.S, compound in 2-hydroxypropyl-β-cyclodextrin
Method: as §1
(§3) Cell proliferation assay was performed as described in Example 2. The following cell line were plated in 96-well plates in 90 μl growth medium containing 10% FCS, 100 units/ml penicillin and 100 μg/ml streptomycin: human ovary cancer A2780 cells (4500 cells/well), human melanoma A375 (1500 cells/well) and YUMAC (2500 cells/well) cells, human colon carcinoma HCT15 (3000 cells/well) and HCT116 (2000 cells/well) cells, human prostate carcinoma PC3 (3000 cells/well), PC3MM2 (3500 cells/well) and DU145 (300 cells/well) cells, human hepatocarcinoma HepG2 (3000 cells/well), human Ewing sarcoma SK-ES-1 (4,500 cells/well), human glioblastoma U138MG (2,000 cells/well), human breast cancer T47D (4000 cells/well) and MDA-MB-468 (6000 cells/well) cells, human small cell lung carcinoma NCI-H1975 (5000 cells/well) cells, human osteosarcoma Saos-2 (5000 cells/well) cells, human pancreatic cancer ASPC (2500 cells/well) cells, human bladder carcinoma T24P (1000 cells/well) cells, human gastric cancer NCI-N87 (5000 cells/well) cells, human lymphoma KARPAS (5,000 cells/well) cells, human leukemia K562 (5,000 cells/well) cells and human multiple myeloma MM1S (10,000 cells/well), U266 (10,000 cells/well) and CAG (5,000 cells/well). Compounds 2-5 and 7-8 were added a day later in 10 μl of 0.7% 2-hydroxypropyl-β-cyclodextrin to obtain final concentrations of 0, 0.1, 0.3, 1, 3 and 10 μM.
Compounds 2-5 and 7-8 of the present invention were tested for their inhibitory potential in cell proliferation assay. Human ovary cancer A2780 cells, human melanoma A375 and YUMAC cells, human colon carcinoma HCT15 and HCT116 cells, human prostate carcinoma PC3, PC3MM2 and DU145 cells, human hepatocarcinoma HepG2 cells, human Ewing sarcoma SK-ES-1 cells, human glioblastoma U138MG cells, human breast cancer T47D and MDA-MB-468 cells, human small cell lung carcinoma NCI-H1975 cells, human osteosarcoma Saos-2 cells, human pancreatic cancer ASPC cells, human bladder cancer T24P cells, human gastric cancer cells, human lymphoma KARPAS cells, human leukemia K562 cells, and human multiple myeloma MM1S, CAG and U266 cells, were exposed to increasing concentrations of compounds 2-5 and 7-8. […]

[3] = test system: human hepatocarcinoma HepG2 cells; assay: Cell proliferation, HepG2 (Example 4); conditions: compound in 2-hydroxypropyl-β-cyclodextrin
Method: as §1, §2

[4] = test system: Human ovary cancer A2780 cells; assay: Cell proliferation, A2780 (Example 4); conditions: compound in 2-hydroxypropyl-β-cyclodextrin
Method: as §1, §2

[5] = test system: human pancreatic cancer ASPC cells; assay: Cell proliferation, ASPC (Example 4); conditions: compound in 2-hydroxypropyl-β-cyclodextrin
Method: as §1, §3
(§4) Compounds 2-5 and 7-8 of the present invention were tested for their inhibitory potential in cell proliferation assay. […]

[6] = test system: human prostate carcinoma DU145 cells; assay: Cell proliferation, DU145 (Example 4); conditions: DU-145, DU145, prostate cancer, compound in 2-hydroxypropyl-β-cyclodextrin
Method: as §1, §2

[7] = test system: human prostate carcinoma PC3MM2 cells; assay: Cell proliferation, PC3MM2 (Example 4); conditions: PC3MM2, prostate cancer, compound in 2-hydroxypropyl-β-cyclodextrin
Method: as §1, §2

human NCI-H1975 cells = assay: Cell proliferation, NCI-H1975 (Example 4); conditions: NCI-H1975, SCLC, compound in 2-hydroxypropyl-β-cyclodextrin
Method: as §1, §2

[8] = test system: human multiple myeloma CAG cells; assay: Cell proliferation, CAG (Example 4); conditions: compound in 2-hydroxypropyl-β-cyclodextrin
Method: as §1, §2

[9] = test system: human colon carcinoma HCT116 cells; assay: Cell proliferation, HCT116 (Example 4); conditions: HCT-116, HCT116, colon cancer, compound in 2-hydroxypropyl-β-cyclodextrin
Method: as §1, §3, §4

[10] = test system: human lymphoma KARPAS cells; assay: Cell proliferation, KARPAS (Example 4); conditions: compound in 2-hydroxypropyl-β-cyclodextrin
Method: as §1, §2

[11] = test system: human gastric cancer NCI-N87 cells; assay: Cell proliferation, NCI-N87 (Example 4); conditions: compound in 2-hydroxypropyl-β-cyclodextrin
Method: as §1, §2

[12] = test system: human Ewing sarcoma SK-ES-1 cells; assay: Cell proliferation, SK-ES-1 (Example 4); conditions: SK-ES1, SK-ES-1, Ewing sarcoma, compound in 2-hydroxypropyl-β-cyclodextrin
Method: as §1, §2

[13] = test system: human leukemia K562 cells; assay: Cell proliferation, K562 (Example 4); conditions: compound in 2-hydroxypropyl-β-cyclodextrin
Method: as §1, §3, §4

[14] = test system: human breast cancer T47D cells; assay: Cell proliferation, T47D (Example 4); conditions: compound in 2-hydroxypropyl-β-cyclodextrin
Method: as §1, §2

[15] = test system: human glioblastoma U138MG cells; assay: Cell proliferation, U138MG (Example 4); conditions: U138-MG, compound in 2-hydroxypropyl-β-cyclodextrin
Method: as §1, §2

[16] = test system: human bladder carcinoma T24P cells; assay: Cell proliferation, T24P (Example 4); conditions: compound in 2-hydroxypropyl-β-cyclodextrin
Method: as §1, §2

[17] = test system: human osteosarcoma Saos-2 cells; assay: Cell proliferation, Saos-2 (Example 4); conditions: Saos-2, osteosarcoma, compound in 2-hydroxypropyl-β-cyclodextrin
Method: as §1, §2

[18] = test system: human melanoma YUMAC cells; assay: Cell proliferation, YUMAC (Example 4); conditions: compound in 2-hydroxypropyl-β-cyclodextrin
Method: as §1, §3, §4

Structure (SMILES) | IC50 [1] | IC50 [2] | IC50 [3] | IC50 [4] | IC50 [5] | IC50 [6] | IC50 [7] | IC50 (human NCI-H1975 cells) | IC50 [8] | IC50 [9] | IC50 [10] | IC50 [11] | IC50 [12] | IC50 [13] | IC50 [14] | IC50 [15] | IC50 [16] | IC50 [17] | IC50 [18]
N#C/C(=C\c1cc(O)c(O)c(I)c1)c1ncc2cc(O)c(=O)c(O)c-2s1 [Compound 2] | 1200 nM | 2000 nM | 2800 nM | 600 nM |  |  |  |  |  |  |  |  |  |  |  |  |  |  | 
O=c1c(O)cc2cnc(/C=C/c3cc(O)c(O)c(I)c3)sc-2c1O [Compound 4] | 2200 nM | 700 nM | 2700 nM | 300 nM | 18500 nM | 2000 nM | 900 nM | 1100 nM | 3000 nM | 700 nM | 1500 nM | 4800 nM | 200 nM | 900 nM | 700 nM | 300 nM | 3200 nM | 2000 nM | 500 nM
O=c1c(O)c2sc(/C=C/c3cc(O)c(O)c(Br)c3)ncc-2c(Br)c1O [Compound 8] |  | 500 nM |  |  | 17700 nM |  |  |  |  | 800 nM |  |  |  | 800 nM |  |  |  |  | 500 nM
O=c1c(O)cc2cnc(/C=C/c3cc(O)c(O)cc3Br)sc-2c1O [Compound 7] |  | 200 nM |  |  | 13300 nM | 2300 nM |  | 2600 nM | 4900 nM | 1400 nM | 1800 nM | 8400 nM | 200 nM | 1800 nM |  | 800 nM | 4500 nM | 2700 nM | 500 nM
